The results in this text go back to patent publication US10011585B2, “Factor XIa inhibitors” (Merck Sharp & Dohme Corp., priority 2014, dated 2018).

Like-named read-outs stand apart in the source and are kept apart here.

The target in assay [1] is T1, Human plasma kallikrein (Homo sapiens, UniProt P03952).
T1 construct: yields a heavy chain (371 amino acids) and a light chain (248 amino acids); purchased Enzyme Research Laboratories
As to the kind of experiment: Kallikrein Assay. As to conditions: Plasma Kallekrein IC50, read-out: PK IC50. The assay is classed as biochemical. The protocol: (§1) The effectiveness of a compound of the present invention as an inhibitor of Kallikrein can be determined using a relevant purified serine protease, and an appropriate synthetic substrate. The rate of hydrolysis of the chromogenic or fluorogenic substrate by the relevant serine protease was measured both in the absence and presence of compounds of the present invention. Assays were conducted at room temperature or at 37° C. […] A decrease in the rate of fluorescence change in the presence of inhibitor is indicative of enzyme inhibition. Such methods are known to one skilled in the art. The results of this assay are expressed as the inhibitory constant, Ki.
Kallikrein determinations were made in 50 mM HEPES buffer at pH 7.4 containing 150 mM NaCl, 5 mM CaCl2, and 0.1% PEG 8000 (polyethylene glycol; Fisher Scientific). Determinations were made using purified Human plasma kallikrein at a final concentration of 0.5 nM (Enzyme Research Laboratories) and the synthetic substrate, Acetyl-K—P—R-AFC (Sigma # C6608) at a concentration of […].
Times required to achieve equilibration between enzyme and inhibitor were determined in control experiments. The reactions were performed under linear progress curve conditions and fluorescence increase measured at 405 Ex/510 Em nm. […] IC50 was determined by inflection point from a four parameter logistic curve fit. Ki was calculated using the Cheng Prusoff equation, Ki=IC50/(1+([S]/Km)).

For assay [2], the target named is T2, human Factor XIa (Homo sapiens, UniProt P03951).
T2 construct: purified human Factor XIa; purchased Sekisui Diagnostics
As to the kind of experiment: Factor XIa Assay. The assay is classed as biochemical. The conditions noted are these: read-out: F11a IC50. The method, then:
as §1, with “Coagulation Factor XIa” for “Kallikrein”, “The results of this assay are expressed as the inhibitory constant, Ki.” left out
Factor XIa determinations were made in 50 mM HEPES buffer at pH 7.4 containing 150 mM NaCl, 5 mM CaCl2, and 0.1% PEG 8000 (polyethylene glycol; JT Baker or Fisher Scientific). Determinations were made using purified human Factor XIa at a final concentration of 40 pM (Sekisui Diagnostics) and the synthetic substrate, Z-Gly-Pro-Arg-AFC, TFA salt (Sigma #C0980) at a concentration of 100 μM.
Times required to achieve equilibration between enzyme and inhibitor were determined in control experiments. Initial velocities of product formation in the absence (Vo) or presence of inhibitor (Vi) were measured. Assuming competitive inhibition, and that unity is negligible compared Km/[S], [I]/e, and [I]/e (where [S], [I], and e respectively represent the total concentrations, of substrate, inhibitor and enzyme), the equilibrium constant (Ki) for dissociation of the inhibitor from the enzyme can be obtained from the dependence of Vo/Vi on [I] shown in the following equation.

T1 sequence (P03952 391-638 limits assumed): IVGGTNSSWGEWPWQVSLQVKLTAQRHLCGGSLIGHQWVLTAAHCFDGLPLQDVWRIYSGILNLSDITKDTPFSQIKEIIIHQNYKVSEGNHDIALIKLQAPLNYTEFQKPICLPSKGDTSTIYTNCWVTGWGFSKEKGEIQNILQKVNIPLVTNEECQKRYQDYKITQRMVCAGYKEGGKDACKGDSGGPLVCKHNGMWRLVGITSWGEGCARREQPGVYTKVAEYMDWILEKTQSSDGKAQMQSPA
T1 sequence (P03952 20-390 partner limits assumed): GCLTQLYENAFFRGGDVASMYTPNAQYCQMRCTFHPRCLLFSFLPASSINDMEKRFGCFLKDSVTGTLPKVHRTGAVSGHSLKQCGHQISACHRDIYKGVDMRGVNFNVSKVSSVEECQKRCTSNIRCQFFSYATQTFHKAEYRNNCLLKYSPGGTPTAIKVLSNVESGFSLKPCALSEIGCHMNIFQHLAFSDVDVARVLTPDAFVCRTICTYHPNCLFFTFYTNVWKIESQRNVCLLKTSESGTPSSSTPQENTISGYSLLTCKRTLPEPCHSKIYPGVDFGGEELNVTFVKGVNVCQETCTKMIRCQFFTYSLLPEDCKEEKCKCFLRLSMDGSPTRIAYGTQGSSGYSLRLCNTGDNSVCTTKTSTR
T2 sequence (P03951 388-625 limits assumed): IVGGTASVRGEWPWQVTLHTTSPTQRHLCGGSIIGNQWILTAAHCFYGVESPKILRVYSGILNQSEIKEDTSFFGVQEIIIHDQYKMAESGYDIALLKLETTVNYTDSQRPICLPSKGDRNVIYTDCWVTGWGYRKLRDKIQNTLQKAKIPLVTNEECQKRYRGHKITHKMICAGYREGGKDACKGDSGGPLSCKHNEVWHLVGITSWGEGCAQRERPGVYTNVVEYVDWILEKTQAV
T2 sequence (P03951 19-387 partner limits assumed): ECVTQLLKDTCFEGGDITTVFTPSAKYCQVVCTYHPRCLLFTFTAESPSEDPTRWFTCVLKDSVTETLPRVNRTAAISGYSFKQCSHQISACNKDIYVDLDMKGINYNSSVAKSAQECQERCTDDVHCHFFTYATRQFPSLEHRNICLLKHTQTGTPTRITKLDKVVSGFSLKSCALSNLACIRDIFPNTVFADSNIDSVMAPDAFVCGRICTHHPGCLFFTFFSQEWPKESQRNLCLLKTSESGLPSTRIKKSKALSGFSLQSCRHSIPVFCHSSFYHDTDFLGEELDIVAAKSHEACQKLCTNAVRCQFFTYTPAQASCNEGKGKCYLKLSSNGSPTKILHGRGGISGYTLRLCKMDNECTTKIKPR

Take `O=C(O)c1ccc2[nH]c(C(Cc3ccccc3)c3ccc(-c4c(F)ccc(Cl)c4F)c[n+]3[O-])nc2c1` (racemic) [Example 1, 2-(1-(5-Carboxy-1H-benzo[d]imidazol-2-yl)-2-phenylethyl)-5-(3-chloro-2,6-difluorophenyl)pyridine 1-oxide]: the IC50 is 293 nM in assay [1] (Examples 1-19 table) and 89.2 nM in assay [2] (Examples 1-19 table).

On to `O=C(O)c1ccc2[nH]c(C(Cc3ccccc3)c3ccc(-c4cc(Cl)ccc4-n4cnnn4)c[n+]3[O-])nc2c1` (racemic) [Example 4, 2-(1-(5-Carboxy-1H-benzo[d]imidazol-2-yl)-2-phenylethyl)-5-(5-chloro-2-(1H-tetrazol-1-yl)phenyl)pyridine 1-oxide], for which the results for the IC50 in assay [1] (Examples 1-19 table) and in assay [2] (Examples 1-19 table) were 52.7 nM and 0.45 nM, respectively.

With `[O-][n+]1cc(-c2cc(Cl)ccc2-n2cnnn2)ccc1C(Cc1ccccc1)c1nc2cc(F)ccc2[nH]1` (racemic) [Example 7, 5-(5-chloro-2-(1H-tetrazol-1-yl)phenyl)-2-(1-(5-fluoro-1H-benzo[d]imidazol-2-yl)-2-phenylethyl)pyridine 1-oxide], the IC50 is 186 nM in assay [1] (Examples 1-19 table) and 1.15 nM in assay [2] (Examples 1-19 table).

As to `[O-][n+]1cc(-c2c(F)ccc(Cl)c2F)ccc1C(Cc1ccccc1)c1nc2cc(F)ccc2[nH]1` (racemic) [Example 10], the IC50 in assay [2] (Examples 1-19 table) was 1250 nM.

Take `N#Cc1ccc2[nH]c(C(Cc3ccccc3)c3ccc(-c4c(F)ccc(Cl)c4F)c[n+]3[O-])nc2c1` (racemic) [Example 13]: the IC50 in assay [2] (Examples 1-19 table) was determined as 1880 nM.

With `N#Cc1ccc2[nH]c(C(Cc3ccccc3)c3ccc(-c4cc(Cl)ccc4-n4cnnn4)c[n+]3[O-])nc2c1` (racemic) [Example 16], the IC50 in assay [1] (Examples 1-19 table) amounted to 151 nM; in assay [2] (Examples 1-19 table), 1.33 nM.

Regarding `N#Cc1ccc(Cl)cc1-c1ccc(C(Cc2ccccc2)c2nc3cc(C(=O)O)ccc3[nH]2)[n+]([O-])c1` (racemic) [Example 17], the IC50 in assay [1] (Examples 1-19 table) amounted to 335 nM; in assay [2] (Examples 1-19 table), 38.2 nM.

With `O=C(O)c1ccc2nc(C(CC3CC3)c3ccc(-c4cc(Cl)ccc4-n4cnnn4)c[n+]3[O-])[nH]c2c1` (racemic) [Example 24, 2-(1-(5-carboxy-1H-benzo[d]imidazol-2-yl)-2-cyclopropylethyl)-5-(5-chloro-2-(1H-tetrazol-1-yl)phenyl)pyridine 1-oxide], the IC50 in assay [2] (Examples 20-28 table) was 14.2 nM.

Regarding `O=C(O)c1ccc2[nH]c(C(Cc3ccccc3)c3ccc(-c4cc(Cl)ccc4C(=O)O)c[n+]3[O-])nc2c1` (racemic) [Example 25], the IC50 was determined as 2740 nM in assay [1] (Examples 20-28 table) and 54 nM in assay [2] (Examples 20-28 table).

As for `O=C(O)c1ccc2nc(C(CC(=O)N3CCC3)c3ccc(-c4c(F)ccc(Cl)c4F)c[n+]3[O-])[nH]c2c1` (racemic) [Example 26], the IC50 in assay [2] (Examples 20-28 table) amounted to 7930 nM.

Consider `O=C(CC(c1nc2ccc(F)cc2[nH]1)c1ccc(-c2cc(Cl)ccc2-n2cnnn2)c[n+]1[O-])N1CCC1` (single isomer, unassigned) [Example 27], for which, in assay [2] (Examples 20-28 table), the IC50 amounted to 79.1 nM.

For `O=C(CC(c1nc2ccc(F)cc2[nH]1)c1ccc(-c2cc(Cl)ccc2-n2cnnn2)c[n+]1[O-])N1CCC1` (single isomer, unassigned) [Example 28], the IC50 in assay [1] (Examples 20-28 table) was found to be 1810 nM; in assay [2] (Examples 20-28 table), 93.7 nM.

`O=C(O)c1ccc2[nH]c(C(Cc3ccccc3)c3ccc(-c4c(F)ccc(Cl)c4F)c[n+]3[O-])nc2c1` (stereo in doubt) [Example 2, (S)-2-(1-(5-Carboxy-1H-benzo[d]imidazol-2-yl)-2-phenylethyl)-5-(3-chloro-2,6-difluorophenyl)pyridine 1-oxide]: the values for the IC50 in assay [1] (Examples 1-19 table) and in assay [2] (Examples 1-19 table) were 182 nM and 46.2 nM, respectively.

Turning to `O=C(O)c1ccc2[nH]c(C(Cc3ccccc3)c3ccc(-c4c(F)ccc(Cl)c4F)c[n+]3[O-])nc2c1` (stereo in doubt) [Example 3, (R)-2-(1-(5-Carboxy-1H-benzo[d]imidazol-2-yl)-2-phenylethyl)-5-(3-chloro-2,6-difluorophenyl)pyridine 1-oxide], the IC50 was 182 nM in assay [1] (Examples 1-19 table) and 138 nM in assay [2] (Examples 1-19 table).

In the case of `[O-][n+]1cc(-c2cc(Cl)ccc2-n2cnnn2)ccc1C(Cc1ccccc1)c1nc2cc(F)ccc2[nH]1` (stereo in doubt) [Example 8, (S)-5-(5-chloro-2-(1H-tetrazol-1-yl)phenyl)-2-(1-(5-fluoro-1H-benzo[d]imidazol-2-yl)-2-phenylethyl)pyridine 1-oxide], the IC50 in assay [1] (Examples 1-19 table) turned out to be 124 nM; in assay [2] (Examples 1-19 table), 1.33 nM.

In the case of `[O-][n+]1cc(-c2cc(Cl)ccc2-n2cnnn2)ccc1C(Cc1ccccc1)c1nc2cc(F)ccc2[nH]1` (stereo in doubt) [Example 9, (R)-5-(5-chloro-2-(1H-tetrazol-1-yl)phenyl)-2-(1-(5-fluoro-1H-benzo[d]imidazol-2-yl)-2-phenylethyl)pyridine 1-oxide], the IC50 in assay [1] (Examples 1-19 table) was found to be 295 nM; in assay [2] (Examples 1-19 table), 3.28 nM.

For `O=C(O)c1ccc2[nH]c([C@@H](Cc3ccccc3)c3ccc(-c4cc(Cl)ccc4-n4cnnn4)c[n+]3[O-])nc2c1` [Example 5, (S)-2-(1-(5-Carboxy-1H-benzo[d]imidazol-2-yl)-2-phenylethyl)-5-(5-chloro-2-(1H-tetrazol-1-yl)phenyl)pyridine 1-oxide], the IC50 in assay [1] (Examples 1-19 table) turned out to be 216 nM; in assay [2] (Examples 1-19 table), 3.41 nM.

Take `O=C(O)c1ccc2[nH]c([C@H](Cc3ccccc3)c3ccc(-c4cc(Cl)ccc4-n4cnnn4)c[n+]3[O-])nc2c1` [Example 6, (R)-2-(1-(5-Carboxy-1H-benzo[d]imidazol-2-yl)-2-phenylethyl)-5-(5-chloro-2-(1H-tetrazol-1-yl)phenyl)pyridine 1-oxide]: the IC50 in assay [1] (Examples 1-19 table) is 28.4 nM; in assay [2] (Examples 1-19 table) it was 0.51 nM.

Take `O=C(O)c1ccc2[nH]c([C@@H](Cc3ccc(F)cc3)c3ccc(-c4c(F)ccc(Cl)c4F)c[n+]3[O-])nc2c1` [Example 11]: the IC50 in assay [2] (Examples 1-19 table) turned out to be 146 nM.

Turning to `O=C(O)c1ccc2[nH]c([C@H](Cc3ccc(F)cc3)c3ccc(-c4c(F)ccc(Cl)c4F)c[n+]3[O-])nc2c1` [Example 12], the IC50 in assay [2] (Examples 1-19 table) was found to be 160 nM.

With `[O-][n+]1cc(-c2cc(Cl)ccc2-n2cnnn2)ccc1[C@H](Cc1ccc(F)cc1)c1nc2cc(F)ccc2[nH]1` [Example 14], the IC50 in assay [1] (Examples 1-19 table) worked out at 809 nM; in assay [2] (Examples 1-19 table), 89.7 nM.

Turning to `[O-][n+]1cc(-c2cc(Cl)ccc2-n2cnnn2)ccc1[C@@H](Cc1ccc(F)cc1)c1nc2cc(F)ccc2[nH]1` [Example 15], the IC50 in assay [1] (Examples 1-19 table) was 245 nM; in assay [2] (Examples 1-19 table) it was 4.7 nM.

In the case of `[O-][n+]1cc(-c2c(-n3cnnn3)ccc(Cl)c2F)ccc1[C@@H](Cc1ccccc1)c1nc2cc(F)ccc2[nH]1` [Example 20, 2-[(1R)-1-{5-[3-chloro-2-fluoro-6-(1H-tetrazol-1-yl)phenyl]-1-oxidopyridin-2-yl}-2-phenylethyl]-5-fluoro-1H-benzimidazole], the figures for the IC50 in assay [1] (Examples 20-28 table) and in assay [2] (Examples 20-28 table) were 64.8 nM and 1.82 nM, respectively.

Consider `[O-][n+]1cc(-c2c(-n3cnnn3)ccc(Cl)c2F)ccc1[C@H](Cc1ccccc1)c1nc2cc(F)ccc2[nH]1` [Example 21, 2-[(1S)-1-{5-[3-chloro-2-fluoro-6-(1H-tetrazol-1-yl)phenyl]-1-oxidopyridin-2-yl}-2-phenylethyl]-5-fluoro-1H-benzimidazole], for which the IC50 was 169 nM in assay [1] (Examples 20-28 table) and 11.8 nM in assay [2] (Examples 20-28 table).

Take `NC(=O)c1ccc(Cl)cc1-c1ccc([C@@H](Cc2ccccc2)c2nc3cc(F)ccc3[nH]2)[n+]([O-])c1` [Example 22, (R)-5-(2-carbamoyl-5-chlorophenyl)-2-(1-(5-fluoro-1H-benzo[d]imidazol-2-yl)-2-phenylethyl)pyridine 1-oxide]: in assay [2] (Examples 20-28 table), the IC50 is 154 nM.

Regarding `NC(=O)c1ccc(Cl)cc1-c1ccc([C@H](Cc2ccccc2)c2nc3cc(F)ccc3[nH]2)[n+]([O-])c1` [Example 23, (S)-5-(2-carbamoyl-5-chlorophenyl)-2-(1-(5-fluoro-1H-benzo[d]imidazol-2-yl)-2-phenylethyl)pyridine 1-oxide], the IC50 in assay [2] (Examples 20-28 table) was determined as 1000 nM.
